According to patent publication US12514859B2, “Pyrazole pyrimidine derivative and uses thereof” (Yissum Research Development Company of the Hebrew …, priority 2015, dated 2026):

system: p53, DNA damage response (γH2AX); experiment: p53 and DNA damage response activation in RKO cells (Western blot, primary screen and dose response); type: cell-based; conditions: 16 hours, Western blot, average value
Experimental: Primary Screen in RKO cells for compounds having typical CKIα inhibitory activity (β-catenin and p53 stabilization and histone H2AX phosphorylation; see Elyada et al, Nature 2011 Feb. 17; 470(7334):409-13; Pribluda et al, Cancer Cell 2013 Aug. 12; 24(2):242-56). RKO colorectal cells were incubated with 10 μM of each of the compounds for 16 hours at 37° C. Cells were washed with PBS and cell pellets were incubated with ice cold protein lysis buffer containing protease inhibitor cocktail (1/200; Calbiochem) and phosphatase inhibitors (20 mM p-nitrophenyl phosphate (PNPP), 20 mM β-glycerophosphate and 300 nM okadaic acid). Western blot analysis was performed by means of standard techniques. Blots were incubated with antibodies detecting β-catenin (1/2,500; BD Transduction), p53 (DO-1&1801 hybridoma mix; dilution of 1:20 of supernatants from each), CKIα (C-19; 1/1,000; Santa Cruz Biotechnology) and phospho-histoneH2AX (S139; 1/1,000; Millipore). Secondary antibodies were HRP-linked goat anti-mouse, goat anti-rabbit and rabbit anti-goat antibodies (all 1/10,000; Jackson). Blots were developed using ECL (GE Healthcare).
Active compounds were further analyzed in a dose-response experiment (FIGS. 1A and 1B). Similar to the primary screen, RKO cells were incubated with descending concentrations of each of the active compounds for 16 hours at 37° C. Cell extract isolation and Western Blot analysis were similar to the primary screen.
Table 1 provides quantified information for compounds of the invention in activation of p53 and DNA damage response (DDR) and β-catenin stabilization as an indicator of Wnt pathway activation. p53 activation was determined according to the degree of protein stabilization in several Western blot assays (Western blot examples are shown in FIGS. 1A and 1B). […] In contrast, A35 started stabilizing p53 at […], with maximal stabilization at […] (FIG. 1A, upper right panel) and thus received an average value of +++ for p53 activation.

SMILES	DDR & p53 activity
Cn1ncc(-c2nc(NC3CCC(NCc4ccccc4)CC3)ncc2Cl)c1CC1CC1 [Compound A74, (1R,4R)—N^1-benzyl-N^4-(5-chloro-4-(5-(cyclopropylmethyl)-1-methyl-1H-pyrazol-4-yl)pyrimidin-2-yl)cyclohexane-1,4-diamine]	+++ (+++ indicates maximal β-catenin or p53 stabilization at >2 μM)
Cn1ncc(-c2ccnc(N[C@H]3CC[C@H](N4CCC4)CC3)n2)c1CC1CC1 [Compound A50, N-((1R, 4R)-4-(azetidin-1-yl)cyclohexyl)-4-(5-(cyclopropylmethyl)-1-methyl-1H-pyrazol-4-yl)pyrimidin-2-amine]	+++ (+++ indicates maximal β-catenin or p53 stabilization at >2 μM)
Cn1ncc(-c2nc(NC3CCC(NCc4cccnc4)CC3)ncc2Cl)c1CC1CC1 [Compound A76, (1R,4R)—N^1-(5-chloro-4-(5-(cyclopropylmethyl)-1-methyl-1H-pyrazol-4-yl)pyrimidin-2-yl)-N^4-(pyridin-3-ylmethyl)cyclohexane-1,4-diamine]	+++ (+++ indicates maximal β-catenin or p53 stabilization at >2 μM)
Cn1ncc(-c2ccnc(N[C@H]3CC[C@H](N)CC3)n2)c1C(O)C1CC1 (stereo partly drawn) [Compound A58, (4-(2-(((1R,4R)-4-aminocyclohexyl)amino)pyrimidin-4-yl)-1-methyl-1H-pyrazol-5-yl)(cyclopropyl)methanol]	+ (+ indicates low, yet significant activation at a compound concentration of 6 μM)
Cn1ncc(-c2nc(N[C@H]3CC[C@H](n4cccn4)CC3)ncc2Cl)c1CC1CC1 [Compound A64, N-((1R,4R)-4-(1H-pyrazol-1-yl)cyclohexyl)-5-chloro-4-(5-(cyclopropylmethyl)-1-methyl-1H-pyrazol-4-yl)pyrimidin-2-amine]	+ (+ indicates low, yet significant activation at a compound concentration of 6 μM)
Cn1ncc(-c2nc(NC3CCC(NCc4ccn[nH]4)CC3)ncc2Cl)c1CC1CC1 [Compound A82, (1R,4R)—N^1-((1H-pyrazol-3-yl)methyl)-N^4-(5-chloro-4-(5-(cyclopropylmethyl)-1-methyl-1H-pyrazol-4-yl)pyrimidin-2-yl)cyclohexane-1,4-diamine]	+++ (+++ indicates maximal β-catenin or p53 stabilization at >2 μM)
Cn1ncc(-c2nc(N[C@H]3CC[C@H](N(Cc4cn[nH]c4)CC(F)(F)F)CC3)ncc2Cl)c1CC1CC1 [Compound A95, (1R,4R)—N1-((1H-pyrazol-4-yl)methyl)-N4-(5-chloro-4-(5-(cyclopropylmethyl)-1-methyl-1H-pyrazol-4-yl)pyrimidin-2-yl)-N1-(2,2,2-trifluoroethyl)cyclohexane-1,4-diamine]	+++ (+++ indicates maximal β-catenin or p53 stabilization at >2 μM)
Cn1ncc(-c2ccnc(N[C@H]3CC[C@H](N4CCCC4)CC3)n2)c1CC1CC1 [Compound A49, 4-(5-(cyclopropylmethyl)-1-methyl-1H-pyrazol-4-yl)-N-((1R, 4R)-4-(pyrrolidin-1-yl)cyclohexyl)pyrimidin-2-amine]	+ (+ indicates low, yet significant activation at a compound concentration of 6 μM)
Cn1ncc(-c2nc(NC3CCC(C)(N)CC3)ncc2Cl)c1CC1CC1 [Compound A30-1, (1R,4R)—N^1-(5-chloro-4-(5-(cyclopropylmethyl)-1-methyl-1H-pyrazol-4-yl)pyrimidin-2-yl)-4-methylcyclohexane-1,4-diamine]	++++ (++++ indicates maximal activation of p53 and DDR at >0.5 μM)
Cc1[nH]ncc1CN[C@H]1CC[C@H](Nc2ncc(Cl)c(-c3cnn(C)c3CC3CC3)n2)CC1 [Compound A91, (1R,4R)—N^1-(5-chloro-4-(5-(cyclopropylmethyl)-1-methyl-1H-pyrazol-4-yl)pyrimidin-2-yl)-N^4-((5-methyl-1H-pyrazol-4-yl)methyl)cyclohexane-1,4-diamine]	+++ (+++ indicates maximal β-catenin or p53 stabilization at >2 μM)
